How the values were obtained:
duck salad = test: Test B flood test duck salad; format: in vivo, Heteranthera limosa
Method in brief: (§1)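 Plants were grown to the 2-leaf stage before treatment with test chemical, then held in a greenhouse for twelve to sixteen days. Injury was visually rated against untreated controls on a 0–10 scale, where 0 is no effect and 10 is complete control.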

velvetleaf = test: Test B pre/postemergence velvetleaf; format: in vivo, Abutilon theophrasti
Method in brief: (§2)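 Test chemicals in a non-phytotoxic solvent mixture with surfactant were sprayed preemergence onto planted seeds and postemergence onto plants 2 to 18 cm tall (1- to 4-leaf stage). After twelve to sixteen days in a greenhouse, injury was visually rated against untreated controls from 0 (no effect) to 10 (complete control).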

purple nutsedge = test: Test B pre/postemergence purple nutsedge; format: in vivo, Cyperus rotundus
Method in brief: as §2

bedstraw = test: Test B pre/postemergence bedstraw; format: in vivo, Galium aparine
Method in brief: as §2

crabgrass = test: Test B pre/postemergence crabgrass; format: in vivo, Digitaria sanguinalis
Method in brief: as §2

wheat = test: Test B pre/postemergence wheat; format: in vivo, Triticum aestivum
Method in brief: as §2

blackgrass = test: Test B pre/postemergence blackgrass; format: in vivo, Alopecurus myosuroides
Method in brief: as §2

surinam grass = test: Test B pre/postemergence surinam grass; format: in vivo, Brachiaria decumbens
Method in brief: as §2

pigweed = test: Test B pre/postemergence pigweed; format: in vivo, Amaranthus retroflexus
Method in brief: as §2

cocklebur = test: Test B pre/postemergence cocklebur; format: in vivo, Xanthium strumarium
Method in brief: as §2

smallflower flatsedge = test: Test B flood test smallflower flatsedge; format: in vivo, Cyperus difformis
Method in brief: as §1

morningglory = test: Test B pre/postemergence morningglory; format: in vivo, Ipomoea hederacea
Method in brief: as §2

sugar beet = test: Test B pre/postemergence sugar beet; format: in vivo, Beta vulgaris
Method in brief: as §2

rape = test: Test B pre/postemergence rape; format: in vivo, Brassica napus
Method in brief: as §2

wild oat = test: Test B pre/postemergence wild oat; format: in vivo, Avena fatua
Method in brief: as §2

corn = test: Test B pre/postemergence corn; format: in vivo, Zea mays
Method in brief: as §2

[1] = Rate 62 g/ha, headed Pre-emergence (flood test species), scale 0 to 10 (0 no effect, 10 complete control)
[2] = Rate 125 g/ha, Pre-emergence, flood test species, scale 0 to 10 where 0 is no effect and 10 is complete control
[3] = Rate 250 g/ha, Pre-emergence, flood-test species, scale 0 to 10, 0 is no effect, 10 is complete control
[4] = Postemergence, Rate 1000 g/ha, scale 0 to 10 (0 no effect, 10 complete control)
[5] = Preemergence, Rate 62 g/ha, scale of 0 to 10 where 0 is no effect and 10 is complete control
[6] = Preemergence, Rate 250 g/ha, scale 0 to 10, 0 is no effect, 10 is complete control
[7] = Preemergence, Rate 500 g/ha, scale 0 to 10 (0 no effect, 10 complete control)
[8] = Rate 125 g/ha, Postemergence, scale 0 to 10
[9] = Rate 500 g/ha, Postemergence, scale 0 to 10
[10] = Rate 1000 g/ha, Preemergence, scale 0 to 10 (0 no effect, 10 complete control)
[11] = Preemergence, Rate 125 g/ha, 0 is no effect, 10 is complete control
[12] = Rate 62 g/ha, Postemergence, scale of 0 to 10 where 0 is no effect and 10 is complete control

## CC(C)N(C(=O)n1oc(=O)n(C2CCCC(C(F)(F)F)C2)c1=O)c1ccc(F)cc1 (stereo not shown) [Compound 184]
Duck salad; [1]
  Ducksalad plant response rating: 0
Duck salad; [2]
  Ducksalad plant response rating: 0
Duck salad; [3]
  Ducksalad plant response rating: 0
Duck salad; Rate 500 g/ha, headed Pre-emergence (flood test species), scale 0 to 10 (0 no effect, 10 complete control)
  Plant response rating, Ducksalad: 0
Duck salad; Rate 1000 g/ha, Pre-emergence (as headed), scale 0 to 10
  Ducksalad plant response rating: 0
velvetleaf; [4]
  Velvetleaf plant response rating: 2
velvetleaf; [5]
  Velvetleaf plant response rating: 0
velvetleaf; [6]
  Velvetleaf plant response rating: 2
velvetleaf; [7]
  Velvetleaf plant response rating: 7
velvetleaf; [8]
  Velvetleaf plant response rating: 1
velvetleaf; Rate 250 g/ha, Postemergence
  Plant response rating (0 to 10; 0 is no effect, 10 is complete control), Velvetleaf: 1
velvetleaf; [9]
  Velvetleaf plant response rating: 5
velvetleaf; [10]
  Plant response rating, Velvetleaf: 3
Purple nutsedge; [4]
  Nutsedge plant response rating: 0
Purple nutsedge; [5]
  Nutsedge plant response rating: 0
Purple nutsedge; [11]
  Nutsedge plant response rating (0 to 10 scale): 0
Purple nutsedge; [6]
  Nutsedge plant response rating: 0
Purple nutsedge; [7]
  Nutsedge plant response rating: 0
Purple nutsedge; [12]
  Nutsedge plant response rating: 0
Purple nutsedge; [8]
  Nutsedge plant response rating: 0
Purple nutsedge; Rate 250 g/ha, Postemergence
  Plant response rating (0 to 10; 0 is no effect, 10 is complete control), Nutsedge: 0
Purple nutsedge; [9]
  Nutsedge plant response rating: 0
bedstraw; [5]
  Bedstraw plant response rating: 0
bedstraw; [11]
  Bedstraw plant response rating (0 to 10 scale): 0
bedstraw; [6]
  Bedstraw plant response rating: 2
bedstraw; [7]
  Bedstraw plant response rating: 2
bedstraw; [12]
  Bedstraw plant response rating: 0
bedstraw; [8]
  Bedstraw plant response rating: 7
bedstraw; Rate 250 g/ha, Postemergence
  Plant response rating (0 to 10; 0 is no effect, 10 is complete control), Bedstraw: 3
bedstraw; [9]
  Bedstraw plant response rating: 6
bedstraw; [10]
  Plant response rating, Bedstraw: 2
crabgrass; [4]
  Crabgrass plant response rating: 2
crabgrass; [5]
  Crabgrass plant response rating: 0
crabgrass; [11]
  Crabgrass plant response rating (0 to 10 scale): 5
crabgrass; [6]
  Crabgrass plant response rating: 7
crabgrass; [7]
  Crabgrass plant response rating: 9
crabgrass; [12]
  Crabgrass plant response rating: 0
crabgrass; [8]
  Crabgrass plant response rating: 0
crabgrass; Rate 250 g/ha, Postemergence
  Plant response rating (0 to 10; 0 is no effect, 10 is complete control), Crabgrass: 0
crabgrass; [9]
  Crabgrass plant response rating: 2
crabgrass; [10]
  Plant response rating, Crabgrass: 9
wheat; [4]
  Wheat plant response rating: 3
wheat; [5]
  Wheat plant response rating: 0
wheat; [6]
  Wheat plant response rating: 0
wheat; [7]
  Wheat plant response rating: 0
wheat; [8]
  Wheat plant response rating: 2
wheat; Rate 250 g/ha, Postemergence
  Plant response rating (0 to 10; 0 is no effect, 10 is complete control), Wheat: 2
wheat; [9]
  Wheat plant response rating: 3
wheat; [10]
  Plant response rating, Wheat: 0
blackgrass; [4]
  Blackgrass plant response rating: 7
blackgrass; [5]
  Blackgrass plant response rating: 0
blackgrass; [11]
  Blackgrass plant response rating (0 to 10 scale): 3
blackgrass; [6]
  Blackgrass plant response rating: 5
blackgrass; [7]
  Blackgrass plant response rating: 7
blackgrass; [12]
  Blackgrass plant response rating: 0
blackgrass; [8]
  Blackgrass plant response rating: 1
blackgrass; Rate 250 g/ha, Postemergence
  Plant response rating (0 to 10; 0 is no effect, 10 is complete control), Blackgrass: 3
blackgrass; [9]
  Blackgrass plant response rating: 4
blackgrass; [10]
  Plant response rating, Blackgrass: 7
Surinam grass; [4]
  B. signalgrass plant response rating: 3
Surinam grass; [5]
  B. signalgrass plant response rating: 5
Surinam grass; [11]
  B. signalgrass plant response rating (0 to 10 scale): 5
Surinam grass; [6]
  B. signalgrass plant response rating: 8
Surinam grass; [7]
  B. signalgrass plant response rating: 8
Surinam grass; [12]
  B. signalgrass plant response rating: 0
Surinam grass; Rate 125 g/ha, Postemergence, scale 0 (no effect) to 10 (complete control)
  B. signalgrass plant response rating: 0
Surinam grass; Rate 250 g/ha, Postemergence, scale 0 to 10, 0 is no effect, 10 is complete control
  Plant response rating, B. signalgrass: 0
Surinam grass; Rate 500 g/ha, Postemergence, scale 0 to 10, 0 no effect, 10 complete control
  B. signalgrass plant response rating: 0
Surinam grass; [10]
  Plant response rating, B. signalgrass: 5
pigweed; [4]
  Redroot pigweed plant response rating: 6
pigweed; [5]
  Redroot pigweed plant response rating: 0
pigweed; [11]
  Redroot pigweed plant response rating (0 to 10 scale): 0
pigweed; [6]
  Redroot pigweed plant response rating: 0
pigweed; [7]
  Redroot pigweed plant response rating: 1
pigweed; [12]
  Redroot pigweed plant response rating: 0
pigweed; [8]
  Redroot pigweed plant response rating: 4
pigweed; Rate 250 g/ha, Postemergence
  Plant response rating (0 to 10; 0 is no effect, 10 is complete control), Redroot pigweed: 7
pigweed; [9]
  Redroot pigweed plant response rating: 7
pigweed; [10]
  Plant response rating, Redroot pigweed: 2
cocklebur; [4]
  Cocklebur plant response rating: 2
cocklebur; [5]
  Cocklebur plant response rating: 0
cocklebur; [11]
  Cocklebur plant response rating (0 to 10 scale): 0
cocklebur; [6]
  Cocklebur plant response rating: 0
cocklebur; [7]
  Cocklebur plant response rating: 2
cocklebur; [12]
  Cocklebur plant response rating: 0
cocklebur; [8]
  Cocklebur plant response rating: 0
cocklebur; Rate 250 g/ha, Postemergence
  Plant response rating (0 to 10; 0 is no effect, 10 is complete control), Cocklebur: 0
cocklebur; [9]
  Cocklebur plant response rating: 1
cocklebur; [10]
  Plant response rating, Cocklebur: 3
Smallflower flatsedge; Pre-emergence, Rate 1000 g/ha, scale 0 to 10 (0 no effect, 10 complete control)
  S. Flatsedge plant response rating: 0
Smallflower flatsedge; [1]
  S. Flatsedge plant response rating: 0
Smallflower flatsedge; [2]
  S. Flatsedge plant response rating: 0
Smallflower flatsedge; [3]
  S. Flatsedge plant response rating: 0
Smallflower flatsedge; Rate 500 g/ha, Pre-emergence, flood test species, scale 0 to 10 (0 no effect, 10 complete control)
  S. Flatsedge plant response rating: 0
morningglory; [4]
  Morningglory plant response rating: 9
morningglory; [5]
  Morningglory plant response rating: 0
morningglory; [11]
  Morningglory plant response rating (0 to 10 scale): 0
morningglory; [6]
  Morningglory plant response rating: 0
morningglory; [7]
  Morningglory plant response rating: 0
morningglory; [12]
  Morningglory plant response rating: 0
morningglory; [8]
  Morningglory plant response rating: 6
morningglory; Rate 250 g/ha, Postemergence
  Plant response rating (0 to 10; 0 is no effect, 10 is complete control), Morningglory: 6
morningglory; [9]
  Morningglory plant response rating: 7
morningglory; [10]
  Plant response rating, Morningglory: 2
Sugar beet; [4]
  Sugarbeets plant response rating: 0
Sugar beet; [5]
  Sugarbeets plant response rating: 0
Sugar beet; [11]
  Sugarbeets plant response rating (0 to 10 scale): 0
Sugar beet; [6]
  Sugarbeets plant response rating: 0
Sugar beet; [7]
  Sugarbeets plant response rating: 0
Sugar beet; [12]
  Sugarbeets plant response rating: 2
Sugar beet; [8]
  Sugarbeets plant response rating: 2
Sugar beet; Rate 250 g/ha, Postemergence
  Plant response rating (0 to 10; 0 is no effect, 10 is complete control), Sugarbeets: 5
Sugar beet; [9]
  Sugarbeets plant response rating: 6
Sugar beet; [10]
  Plant response rating, Sugarbeets: 2
rape; [4]
  Rape plant response rating: 3
rape; [5]
  Rape plant response rating: 0
rape; [11]
  Rape plant response rating (0 to 10 scale): 0
rape; [6]
  Rape plant response rating: 0
rape; [7]
  Rape plant response rating: 0
rape; [12]
  Rape plant response rating: 0
rape; [8]
  Rape plant response rating: 2
rape; Rate 250 g/ha, Postemergence
  Plant response rating (0 to 10; 0 is no effect, 10 is complete control), Rape: 3
rape; [9]
  Rape plant response rating: 6
rape; [10]
  Plant response rating, Rape: 0
Wild oat; [4]
  Wild oats plant response rating: 5
Wild oat; [5]
  Wild oats plant response rating: 0
Wild oat; [6]
  Wild oats plant response rating: 0
Wild oat; [7]
  Wild oats plant response rating: 3
Wild oat; [8]
  Wild oats plant response rating: 0
Wild oat; Rate 250 g/ha, Postemergence
  Plant response rating (0 to 10; 0 is no effect, 10 is complete control), Wild oats: 0
Wild oat; [9]
  Wild oats plant response rating: 2
Wild oat; [10]
  Plant response rating, Wild oats: 4
corn; [4]
  Corn plant response rating: 0
corn; [5]
  Corn plant response rating: 0
corn; [11]
  Corn plant response rating (0 to 10 scale): 0
corn; [6]
  Corn plant response rating: 0
corn; [7]
  Corn plant response rating: 0
corn; [12]
  Corn plant response rating: 0
corn; [8]
  Corn plant response rating: 0
corn; Rate 250 g/ha, Postemergence
  Plant response rating (0 to 10; 0 is no effect, 10 is complete control), Corn: 0
corn; [9]
  Corn plant response rating: 0
corn; [10]
  Plant response rating, Corn: 2
